Laboratory results taken from PubChem BioAssay AID256 (DTP/NCI, 2004).
Inconclusive results and toxic doses are left out. How the source made its calls: active means survival T/C of 150% or more; inactive means T/C below 125% in these data.

Test system: CD2F1 mice, L1210 leukemia ip, survival T/C
Assay: NCI In Vivo Anticancer Drug Screen. Data for tumor model L1210 Leukemia (intraperitoneal) in CD2F1 (CDF1) mice
Conditions: endpoint: mean survival time, higher = longer survival
Method in brief: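 Mice carrying a transplanted tumor received test compound or vehicle alone. The value is the measurement in the treated group divided by that in the vehicle-treated control group.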

[1] = dose: 100.0 mg/kg/injection, schedule: Q01DX001 (ip), vehicle: saline
[2] = dose: 200.0 mg/kg/injection, schedule: Q01DX001 (ip), vehicle: saline
[3] = dose: 400.0 mg/kg/injection, schedule: Q01DX001 (ip), vehicle: saline
[4] = dose: 25.0 mg/kg/injection, schedule: Q04DX002 (ip), vehicle: saline
[5] = dose: 50.0 mg/kg/injection, schedule: Q04DX002 (ip), vehicle: saline
[6] = dose: 100.0 mg/kg/injection, schedule: Q01DX001 (ip), vehicle: saline with Tween-80
[7] = dose: 200.0 mg/kg/injection, schedule: Q01DX001 (ip), vehicle: saline with Tween-80
[8] = dose: 400.0 mg/kg/injection, schedule: Q01DX001 (ip), vehicle: saline with Tween-80
[9] = dose: 100.0 mg/kg/injection, schedule: Q04DX003 (ip), vehicle: saline with Tween-80

Measured: T/C

O=C(Nc1cc(Cl)c(I)c(Cl)c1)C(F)(F)F
inactive: [1] 98 % of control | [2] 101 % of control | [3] 98 % of control

CC(C)CC(C)OP(=S)(S)OC(C)CC(C)C (stereo not given)
inactive: dose: 12.5 mg/kg/injection, schedule: Q04DX002 (ip), vehicle: saline 95 % of control | [4] 95 % of control | [5] 109 % of control

Cc1[nH]c(=O)[nH]c(=O)c1NC(=O)c1ccccc1[N+](=O)[O-]
inactive: dose: 12.5 mg/kg/injection, schedule: Q01DX009 (ip), vehicle: saline with Tween-80 98 % of control | dose: 12.5 mg/kg/injection, schedule: Q04DX003 (ip), vehicle: saline sonified 100 % of control | dose: 25.0 mg/kg/injection, schedule: Q01DX009 (ip), vehicle: saline with Tween-80 104 % of control | dose: 25.0 mg/kg/injection, schedule: Q04DX003 (ip), vehicle: saline sonified 103 % of control | dose: 50.0 mg/kg/injection, schedule: Q01DX009 (ip), vehicle: saline with Tween-80 97 % of control | dose: 50.0 mg/kg/injection, schedule: Q04DX003 (ip), vehicle: saline sonified 94 % of control

c1ccc2c(c1)nnn1c3ncccc3nc21
inactive: dose: 75.0 mg/kg/injection, schedule: Q01DX001 (ip), vehicle: saline 98 % of control | dose: 150.0 mg/kg/injection, schedule: Q01DX001 (ip), vehicle: saline 92 % of control | dose: 300.0 mg/kg/injection, schedule: Q01DX001 (ip), vehicle: saline 93 % of control

NCCCCC1(CCCCN)OCCO1
inactive: dose: 25.0 mg/kg/injection, schedule: Q01DX009 (ip), vehicle: saline 95 % of control | [4] 102 % of control | dose: 50.0 mg/kg/injection, schedule: Q01DX009 (ip), vehicle: saline 102 % of control | [5] 95 % of control | [6] 94 % of control

COC(=O)c1ccc(-c2ccccc2)cc1
inactive: dose: 25.0 mg/kg/injection, schedule: Q01DX009 (ip), vehicle: Klucel (hydroxypropylcellulose) (HPC) 96 % of control | dose: 50.0 mg/kg/injection, schedule: Q01DX009 (ip), vehicle: Klucel (hydroxypropylcellulose) (HPC) 102 % of control | dose: 100.0 mg/kg/injection, schedule: Q01DX009 (ip), vehicle: Klucel (hydroxypropylcellulose) (HPC) 103 % of control | dose: 200.0 mg/kg/injection, schedule: Q01DX009 (ip), vehicle: Klucel (hydroxypropylcellulose) (HPC) 105 % of control | dose: 400.0 mg/kg/injection, schedule: Q01DX009 (ip), vehicle: Klucel (hydroxypropylcellulose) (HPC) 102 % of control

C(=C\c1nnnn1C12CC3CC(CC(C3)C1)C2)/c1ccccc1
inactive: [1] 104 % of control | [2] 104 % of control | [3] 96 % of control

C/C([O-])=N\[N+](C)(C)Cc1ccccc1
inactive: [6] 95 % of control | [7] 98 % of control | [8] 102 % of control

NC/C(=N\O)c1ccc(-c2ccccc2)cc1
inactive: dose: 100.0 mg/kg/injection, schedule: Q01DX001 (ip), vehicle: Klucel (hydroxypropylcellulose) (HPC) 91 % of control | dose: 200.0 mg/kg/injection, schedule: Q01DX001 (ip), vehicle: Klucel (hydroxypropylcellulose) (HPC) 91 % of control | dose: 400.0 mg/kg/injection, schedule: Q01DX001 (ip), vehicle: Klucel (hydroxypropylcellulose) (HPC) 91 % of control

NC(CO)C(O)C(O)C(O)CO (stereo not given)
inactive: [1] 106 % of control | [2] 98 % of control | [3] 103 % of control

O=[N+]([O-])c1ccccc1NS(=O)(=O)c1ccccc1
inactive: [6] 100 % of control | [7] 102 % of control | [8] 107 % of control

CCOC(=O)C(=CN1CCCCC1)C(=O)OCC
inactive: dose: 100.0 mg/kg/injection, schedule: Q01DX009 (ip), vehicle: saline with Tween-80 92 % of control | dose: 200.0 mg/kg/injection, schedule: Q01DX009 (ip), vehicle: saline with Tween-80 94 % of control | dose: 400.0 mg/kg/injection, schedule: Q01DX009 (ip), vehicle: saline with Tween-80 96 % of control

CCOC(=O)CCC(=O)CC(O)(C(F)(F)F)C(F)(F)Cl (stereo not given)
inactive: dose: 100.0 mg/kg/injection, schedule: Q01DX009 (ip), vehicle: saline 104 % of control | [9] 86 % of control | dose: 200.0 mg/kg/injection, schedule: Q01DX009 (ip), vehicle: saline 98 % of control | dose: 200.0 mg/kg/injection, schedule: Q04DX003 (ip), vehicle: saline with Tween-80 103 % of control | dose: 400.0 mg/kg/injection, schedule: Q01DX009 (ip), vehicle: saline 107 % of control | dose: 400.0 mg/kg/injection, schedule: Q04DX003 (ip), vehicle: saline with Tween-80 96 % of control

CC1CC[N-]CC1.CC1CC[N-]CC1.CS(C)=O.[Cl][Rh]([Cl])[Cl]
inactive: [9] 96 % of control
